From ChEMBL document CHEMBL2390851, “Synthesis and preliminary in vitro biological evaluation of 7α-testosterone-chlorambucil hybrid designed for the treatment of prostate cancer” (Eur J Med Chem, 2013)
Activity calls are given as the source filed them. The calls are words filed in the database; no cut-off is given here.

Key:
Type in all cases: functional, cell-based
[1] = test system: PC-3; assay: Cytotoxicity against androgen receptor deficient human PC3 cells at 160 uM after 72 hrs by MTT assay
[2] = test system: LNCaP; assay: Cytotoxicity against human LNCAP cells expressing androgen receptor after 72 hrs by MTT assay
[3] = test system: PC-3; assay: Cytotoxicity against androgen receptor deficient human PC3 cells after 72 hrs by MTT assay; conditions: PC-3, 72 h

SMILES | Activity [1] | IC50 [2] | IC50 [3]
C[C@]12CC[C@H]3[C@@H]([C@H](C/C=C/COC(=O)CCCc4ccc(N(CCCl)CCCl)cc4)CC4=CC(=O)CC[C@@]43C)[C@@H]1CC[C@@H]2O (mixture of isomers) | inactive | 101 µM | –
O=C(O)CCCc1ccc(N(CCCl)CCCl)cc1 [CHLORAMBUCIL] | – | 124 µM | 131 µM
